Data on 9 compounds can be found in US10278965B2, “Method of detecting cancer stem cell, method of screening cancer stem cell, and method of inhibiting cancer stem cell” (CANON KABUSHIKI KAISHA, priority 2012, dated 2019).

In data set [1] the test system is KLM1-KOr cells, ALDH (+) fraction, transplanted to zebra young fish. Kind of data set: Cancer metastasis suppressive effect in cancer cell metastatic foci (region within 300 to 450 μm from a transplanted tumor). The class given is in vivo. To be noted: 72 hours later, region within 300 to 450 μm from transplanted tumor; for Inhibition rate 100×(1−F1/F0), metastatic foci: administered to yolk sac 24 hours after transplantation (Compound (26) 745 μmol/KgBW). As to the method:
From cell strain […], in which KLM1 cells have fluorescent protein Kusabira-Orange constantly expressed, a fraction (ALDH (+)) containing 80% or more of cancer stem cells was extracted with ALDEFLUOR reagent (manufactured by VERITAS Corporation) and FACSAria flow cytometry (manufactured by Nippon Becton, Dickinson and Company). The extracted KLM1-KOr cells were transplanted to zebra young fish (MieKomachi lineage, 2 days after fertilization) and the fish were raised in a 32° C. environment. Furthermore, 24 hours after transplantation, Compound (26) (745 μmol/KgBW) was administered to yolk sac.
72 hours later, cells transplanted to the zebra young fish were observed under MZ16F fluorescent stereoscopic microscope (manufactured by Leica Microsystems) and a fluorescent image of the region within 300 to 450 μm from a transplanted tumor was photographed and then fluorescent intensity was quantified.
As a reference, the fluorescent intensity of cells, which were cultured in the same operation method as above in a medium containing a 0.1% DMSO solution in place of Compound (26), was used.
Fluorescent images were photographed in the same manner as in Experimental Example 26 except that Imatinib and Dasatinib were respectively used in place of the compound (26) in Experimental Example 75.
The inhibition rate herein was obtained according to the expression: 100×(1−F1/F0), where the fluorescent intensity of cells when a test substance was added is represented by F1, and the fluorescent intensity of cells when a reference substance (DMSO) was added is represented by F0.

Data set [2] relates to Human chronic myelocytic leukemia cells, K562, ALDH (+) fraction (cancer stem cells). Put plainly: Cancer stem-cell selective inhibitory action against chronic myelocytic leukemia cells, ALDH (+) fraction. Type of data set: cell-based. As to conditions: 24 hours; for ALDH(+) growth rate / Growth suppression evaluated: K562 ALDH(+), 10 μg/ml. The protocol: (§1) Human chronic myelocytic leukemia cells, K562, were pre-cultured in RPMI1640 medium containing 10% FBS at 37° C. in a 5% CO2 ambient. Then, a fraction containing 80% or more of cancer stem cells was extracted by use of a cancer stem cell marker, ALDEFLUOR reagent (manufactured by VERITAS Corporation) and FACSAria flow cytometry (manufactured by Nippon Becton, Dickinson and Company). […] The cultured cells were analyzed for viable cell count according to CellTiter-Glo Luminescent Cell Viability Assay (manufactured by Promega KK.). […] Note that hereinafter, an ALDEFLUOR reagent positive fraction (deemed as cancer stem cells) is represented by ALDH (+), whereas an ALDEFLUOR reagent negative fraction (not deemed as cancer stem cells) is represented by ALDH (−), in some cases.
(§2) Further, the growth suppressive effect of cancer stem cells was evaluated based on the following criteria. Note that the growth rate in Examples is a value obtained by dividing viable cell count after culture by the number of cells at the initiation time of culture.

Data set [3] relates to Human pancreas cancer cells, KLM-1. Kind of data set: Cancer cell inhibitory (growth suppressive) action against pancreatic cancer cells, CellTiter-Glo viable cell count. To be noted: KLM-1, 10 μg/mL, 24 hours.
Method: Human pancreas cancer cells, KLM-1, were pre-cultured in RPMI1640 medium containing 10% FBS at 37° C. in a 5% CO2 ambient. Thereafter, 4,000 cells were seeded per well of a 96-well plate and further cultured for 24 hours. […] The cultured cells were analyzed for viable cell count according to CellTiter-Glo Luminescent Cell Viability Assay (manufactured by Promega KK.).
Evaluation of cancer cell inhibition against the pancreatic cancer cells (KLM-1) (growth suppression) was made based on the following criteria. Note that the growth rate used in Examples refers to the rate (expressed by percentage) of viable cell count after culture relative to the number of cells at the initiation of cell culture.
Data set [4] has as its system Human chronic myelocytic leukemia cells, K562, ALDH (−) fraction (general cancer cells). Kind of data set: Cancer stem-cell selective inhibitory action against chronic myelocytic leukemia cells, ALDH (−) fraction. Type of data set: cell-based. To be noted: K562 ALDH(−), 10 μg/ml, 24 hours. As to the method:
as §1, §2

Data set [5] in a line: Measurement of fluorescent property of compound. The class given is physicochemical. As to conditions: 5 μM DMSO solution. The protocol: The excitation wavelength and fluorescence wavelength of the compound were measured by a FL4500 spectrofluorometric measuring machine manufactured by Hitachi High-Technologies Corporation.
Data set [6] concerns K562 ALDH (+) cells. Kind of data set: Cancer stem-cell selective staining, ALDH (+) cells. The class given is cell-based, Human. As to conditions: cells of Experimental Examples 39, 42 and 45 (1 μg/ml, cultured for 24 hours), fluorescent microscope. The protocol: (§3) The cells cultured for 24 hours in each of Experimental Examples 39, 42 and 45 were subjected to nuclear staining with Hoechest33342 (manufactured by Dojindo Laboratories) and a fluorescent image observed under AXIOVERT200M inverted fluorescent microscope (manufactured by Carl Zeiss) was photographed.

Data set [7] has as its system Prostatic cancer cells, PC-3. Put plainly: Cancer cell inhibitory (growth suppressive) action against prostatic cancer cells, CellTiter-Glo viable cell count. Type of data set: cell-based. To be noted: PC-3, 10 μg/mL, 24 hours. As to the method: Prostatic cancer cells, PC-3, were pre-cultured in RPMI1640 medium containing 10% FBS at 37° C. in a 5% CO2 ambient. Thereafter, 4,000 cells were seeded per well of a 96-well plate and further cultured for 24 hours. Subsequently, Compound (1) was added to the medium so as to obtain a final concentration of 10 μg/mL and cultured at 37° C. for 24 hours in a 5% CO2 ambient. The cultured cells were analyzed for viable cell count according to Cell Titer-Glo Luminescent Cell Viability Assay (manufactured by Promega KK.).
Viable cell count was analyzed in the same manner as in Experimental Example 24 except that Compound (1) of Experimental Example 24 was changed to each compound shown in Table 2.
Viable cell count was analyzed in the same manner as in Experimental Example 24 except that Compound (1) of Experimental Example 24 was changed to each of Comparative compounds 1 to 4, to obtain growth rates.
Note that the growth rate used in Examples refers to the rate (expressed by percentage) of viable cell count after culture relative to the number of cells at the initiation of cell culture. Evaluation criteria are the same as in the above experiments.

The test system of data set [8] is K562 ALDH (−) cells. Put plainly: Cancer stem-cell selective staining, ALDH (−) cells. Type of data set: cell-based, Human. To be noted: cells of Experimental Examples 39, 42 and 45 (1 μg/ml, cultured for 24 hours), fluorescent microscope. The protocol:
as §3

As for `Cc1nc(Nc2ncc(C(=O)Nc3c(C)cccc3Cl)s2)cc(N2CCN(CCO)CC2)n1` [Dasatinib], in data set [1], the “Inhibition rate 100×(1−F1/F0), metastatic foci” value is 36 and the “Evaluation (inhibition rate, metastatic foci)” value is “C (Inhibition rate is less than 50)”.

Take `CCN1C=C/C(=C/C=C/c2sc3ccccc3[n+]2CC)c2ccccc21.[I-]` [Compound 34]: in data set [2] (K562, 10 μg/ml), the “ALDH(+) Superiority evaluation” value was “A (The value of the growth rate of ALDH (+)/the growth rate of ALDH (−) is less than 0.8)” and the “ALDH(+)/ALDH(−)” value came to 0.72. Further, in data set [2], the “ALDH(+) growth rate” value came to 0.48 and the Growth suppression evaluated entry was “A (The growth rate of ALDH (+) is less than 0.5)”. For the same compound, in data set [3], the “Cancer cell growth rate (%)” value stood at 26.6%; the “Evaluation (cancer cell growth rate)” value is “B (Cancer cell growth rate is 20% or more and less than 50%)”. The “ALDH(−) growth rate” value in data set [4] amounted to 0.67. In data set [5], this compound gave an Excitation wavelength λex of 638 nm and a Fluorescence wavelength λem of 661 nm.

Take `CCN1/C(=C\C=C\c2oc3ccccc3[n+]2CC)Oc2ccccc21` [Compound 14]: in data set [2] (K562, 10 μg/ml), the “ALDH(+) Superiority evaluation” value is recorded as “A (The value of the growth rate of ALDH (+)/the growth rate of ALDH (−) is less than 0.8)” and the “ALDH(+)/ALDH(−)” value is given as 0.77. Further, in data set [2], the “ALDH(+) growth rate” value came out at 0.38 and the Growth suppression evaluated entry is reported as “A (The growth rate of ALDH (+) is less than 0.5)”. In addition, the “ALDH(−) growth rate” value in data set [4] was determined as 0.49. In data set [5], this compound displayed an Excitation wavelength λex of 491 nm and a Fluorescence wavelength λem of 510 nm.

For `CCN1/C(=C/C=C2\CCCC(/C=C/C3=[N+](CC)c4ccc(OC)cc4C34CCCCC4)=C2Oc2ccc(C(c3ccccc3)c3ccccc3)cc2)C2(CCCCC2)c2cc(OC)ccc21` [Compound 58], in data set [2] (K562, 10 μg/ml), the “ALDH(+) Superiority evaluation” value was “B (The value of the growth rate of ALDH (+)/the growth rate of ALDH (−) is 0.8 or more and less than 0.95)”; the “ALDH(+)/ALDH(−)” value is listed as 0.82. Further, in data set [2], the “ALDH(+) growth rate” value came to 0.70; the Growth suppression evaluated result is “B (The growth rate of ALDH (+) is 0.5 or more and less than 0.95)”. The “ALDH(−) growth rate” value in data set [4] amounted to 0.85.

Regarding `CN1\C(=C/C=C/C=C/C2=[N+](C)c3ccc4ccccc4c3C2(C)C)C(C)(C)c2c1ccc1ccccc21` [Compound 26], in data set [1], the “Inhibition rate 100×(1−F1/F0), metastatic foci” value was found to be 80 and the “Evaluation (inhibition rate, metastatic foci)” value is on record as “A (Inhibition rate is 70 or more)”. Further, in data set [3], the “Cancer cell growth rate (%)” value is 8.6% and the “Evaluation (cancer cell growth rate)” value is “A (Cancer cell growth rate is less than 20%)”. In addition, in data set [5], the Excitation wavelength λex amounted to 684 nm and the Fluorescence wavelength λem is 710 nm.

Regarding `CCN1/C(=C/C=C/C=C/C=C/c2oc3ccccc3[n+]2CC)Oc2ccccc21` [Compound 33], in data set [2] (K562, 10 μg/ml), the “ALDH(+) Superiority evaluation” value was “B (The value of the growth rate of ALDH (+)/the growth rate of ALDH (−) is 0.8 or more and less than 0.95)”; the “ALDH(+)/ALDH(−)” value is on record as 0.84. In addition, in data set [2], the “ALDH(+) growth rate” value came out at 0.83; the Growth suppression evaluated entry is “B (The growth rate of ALDH (+) is 0.5 or more and less than 0.95)”. Further, in data set [4], the “ALDH(−) growth rate” value worked out at 1.00.

Regarding `CCN1/C(=C\C=C\C2=[N+](CC)c3ccccc3C23CCCCC3)C2(CCCCC2)c2ccccc21` [Compound 24], in data set [2] (K562, 0.05 μg/ml), the “ALDH(+) Superiority evaluation” value is “B (The value of the growth rate of ALDH (+)/the growth rate of ALDH (−) is 0.8 or more and less than 0.95)”; the “ALDH(+)/ALDH(−)” value worked out at 0.81. In data set [2] (K562, 0.5 μg/ml), the “ALDH(+) Superiority evaluation” value is given as “A (The value of the growth rate of ALDH (+)/the growth rate of ALDH (−) is less than 0.8)” and the “ALDH(+)/ALDH(−)” value was 0.61. Also, in data set [2] (K562, 1 μg/ml), the “ALDH(+) Superiority evaluation” value is given as “A (The value of the growth rate of ALDH (+)/the growth rate of ALDH (−) is less than 0.8)” and the “ALDH(+)/ALDH(−)” value is reported as 0.48. Moreover, in data set [6], the “ratio of ALDH (+) cells stained” value is 81.2%. In addition, in data set [7], the “Cancer cell growth rate (%)” value is given as 10.0% and the “Evaluation (cancer cell growth rate)” value is “A (Cancer cell growth rate is less than 20%)”. In data set [8], the “ratio of ALDH (−) cells stained” value was 28.6%. For the same compound, in data set [3], the “Cancer cell growth rate (%)” value amounted to 6.5% and the “Evaluation (cancer cell growth rate)” value was “A (Cancer cell growth rate is less than 20%)”. In data set [5], the Excitation wavelength λex is 496 nm and the Fluorescence wavelength λem came to 569 nm.

Turning to `CCN1/C(=C\C=C\C2=[N+](CC)c3ccccc3C2(C)C)C(C)(C)c2ccccc21.[I-]` [Compound 22], in data set [2] (K562, 10 μg/ml), the “ALDH(+) Superiority evaluation” value is “A (The value of the growth rate of ALDH (+)/the growth rate of ALDH (−) is less than 0.8)” and the “ALDH(+)/ALDH(−)” value is reported as 0.75. For the same compound, in data set [2], the “ALDH(+) growth rate” value is 0.22 and the Growth suppression evaluated entry is on record as “A (The growth rate of ALDH (+) is less than 0.5)”. Also, the “ALDH(−) growth rate” value in data set [4] amounted to 0.29. In addition, in data set [5], the Excitation wavelength λex is 553 nm and the Fluorescence wavelength λem came to 570 nm.

Take `CCN1C=C/C(=C/C=C/c2oc3ccccc3[n+]2CC)c2ccccc21` [Compound 35]: the “ALDH(+) Superiority evaluation” value in data set [2] (K562, 0.05 μg/ml) is “A (The value of the growth rate of ALDH (+)/the growth rate of ALDH (−) is less than 0.8)”; in data set [2] (K562, 0.5 μg/ml) it was “A (The value of the growth rate of ALDH (+)/the growth rate of ALDH (−) is less than 0.8)”; in data set [2] (K562, 1 μg/ml) it was “B (The value of the growth rate of ALDH (+)/the growth rate of ALDH (−) is 0.8 or more and less than 0.95)”; in data set [2] (K562, 10 μg/ml), “A (The value of the growth rate of ALDH (+)/the growth rate of ALDH (−) is less than 0.8)”. In addition, the “ALDH(+)/ALDH(−)” value in data set [2] (K562, 0.05 μg/ml) came out at 0.77; in data set [2] (K562, 0.5 μg/ml), 0.66; in data set [2] (K562, 1 μg/ml), 0.90; in data set [2] (K562, 10 μg/ml) it was 0.69. The “ratio of ALDH (+) cells stained” value in data set [6] was found to be 82.5%. Further, the “ratio of ALDH (−) cells stained” value in data set [8] is 21.4%. For the same compound, the “Cancer cell growth rate (%)” value in data set [3] turned out to be 29.7%. Besides, the “Evaluation (cancer cell growth rate)” value in data set [3] is “B (Cancer cell growth rate is 20% or more and less than 50%)”. The same compound had an Excitation wavelength λex in data set [5] of 571 nm. The compound further had a Fluorescence wavelength λem in data set [5] of 620 nm.
